Type in all cases: in vivo, mouse
In test [1] the test system is mice exposed to CS. Nature of the test: Weight gain of CS-exposed mice treated with DFP. As to conditions: WT mice, CS 6 or 8 weeks, DFP after 4 weeks of CS, versus CS without DFP; FIG. 6d. The procedure: (§1) In vivo CS exposures, chemical treatments and diet modifications. Age- and sex-matched mice, starting at 6-12 weeks of age, were selected at random and exposed to total body CS in a stainless steel chamber using a whole-body smoke exposure device (Model TE-10 Teague Enterprises) for 2 hours per day, 5 days per week for 4 weeks or 4-6 months. Age-matched male and female mice were used for all CS exposures. Mice were exposed to CS (mainstream and side stream smoke) from 100 3R4F cigarettes (University of Kentucky), which correlated to an average total particulate matter (TPM) of 150 mg/m^3. For animals subjected to cigarette smoke exposure, early death was used as an exclusion criterion. At the end of the exposure regimen, mice were euthanized by CO2 narcosis, the tracheas cannulated and the lungs inflated with PBS at 25 cm of H2O pressure. The left lung was tied off with a suture, dissected and flash frozen and the right lung fixed in 4% formalin at 4° C. overnight. […]
(§2) Mice exposed to CS for 4 weeks had modifications to their dietary iron as follows: Diet 1 (Control Diet) from Harlan Laboratories (TD.94045 AIN-93G), which contained 300-ppm iron. […] Animals were weighed weekly and the quantity of chow consumed was recorded compared to mice on a normal iron diet. […] Animals were checked daily and the quantity of water consumed compared to control mice. […]

Test [2] deals with mice exposed to CS. Nature of the test: CS-induced impairment of mucociliary clearance (MCC), CS-induced bronchitis model. Here is the method:
(§3) In vivo CS exposures, chemical treatments and diet modifications. Age- and sex-matched mice, starting at 6-12 weeks of age, were selected at random and exposed to total body CS in a stainless steel chamber using a whole-body smoke exposure device (Model TE-10 Teague Enterprises) for 2 hours per day, 5 days per week for 4 weeks or 4-6 months. Age-matched male and female mice were used for all CS exposures. Mice were exposed to CS (mainstream and side stream smoke) from 100 3R4F cigarettes (University of Kentucky), which correlated to an average total particulate matter (TPM) of 150 mg/m^3. For animals subjected to cigarette smoke exposure, early death was used as an exclusion criterion. At the end of the exposure regimen, mice were euthanized by CO2 narcosis, the tracheas cannulated and the lungs inflated with PBS at 25 cm of H2O pressure. The left lung was tied off with a suture, dissected and flash frozen and the right lung fixed in 4% formalin at 4° C. overnight. A proximal portion of the left lung (4 month exposures only) was fixed for transmission electron microscopy (TEM) analysis.
Mice exposed to CS for 4 weeks had modifications to their dietary iron as follows: Diet 1 (Control Diet) from Harlan Laboratories (TD.94045 AIN-93G), which contained 300-ppm iron. Diet 2 (iron deficient diet) from Harlan Laboratories (TD.10210), which contained 2-6 ppm iron. […] Animals were weighed weekly and the quantity of chow consumed was recorded compared to mice on a normal iron diet. […] Animals were checked daily and the quantity of water consumed compared to control mice. […]
Assessment of Mucociliary Clearance. Mucociliary clearance was quantified using a non-invasive, oropharyngeal aspiration procedure (Lam et al., The Journal of clinical investigation 123(12), 5212-5230 (2013)). […] Whole mouse 3D μ- single-photon emission computed tomography (SPECT) images from 10 minute acquisitions at 0, 1, and 3 hour time points were obtained, reconstructed, blindly analyzed and expressed as the percent removed by mucociliary clearance. […]

Test [3] deals with mice exposed to CS. Nature of the test: BAL leukocyte counts, BALF protein and IL-33/IL-6 ELISA in CS-induced pulmonary inflammation and injury. As to conditions: WT mice, 4 weeks CS then DFP during additional 2 or 4 weeks of CS, versus CS without DFP. Here is the method:
as §3
Mice exposed to CS for 4 weeks had modifications to their dietary iron as follows: Diet 1 (Control Diet) from Harlan Laboratories (TD.94045 AIN-93G), which contained 300-ppm iron. Diet 2 (iron deficient diet) from Harlan Laboratories (TD.10210), which contained 2-6 ppm iron. Diet 3 (iron replete Diet) from Harlan Laboratories (TD.10213), which contained 2% carbonyl iron. Iron diets were exchanged for normal diets upon weaning at 3 weeks of age and used throughout the smoke exposures. Animals were weighed weekly and the quantity of chow consumed was recorded compared to mice on a normal iron diet. Deferiprone or FERRIPROX® solution (1mg/m1) (ApoPharma Inc.) was administered prophylactically in the animals' drinking water for the duration of smoke exposure. Deferiprone was also administered therapeutically in the animals' drinking water initiating therapy after 4 weeks of smoke exposure and continuing therapy for an additional 2-4 weeks. Animals were checked daily and the quantity of water consumed compared to control mice. Water solutions were changed twice weekly.
BALF isolation, cell counts and ELISA. Mice were euthanized by CO2 narcosis, the tracheas cannulated and the lungs lavaged with 0.5 ml increments of ice-cold PBS eight times (4 ml total). BALF was centrifuged at 500×g for 5 minutes. […] The cell pellet was resuspended in 500 μl PBS and leukocytes were counted using a hemocytometer. […] The percentage of macrophages, lymphocytes and polymorphonuclear leukocytes (PMNs) were counted in a total of 300 cells, and absolute numbers of each leukocyte subset were calculated. […]
(An ELISA detects its analyte on a solid surface through an enzyme-linked reagent.)

Test [4] relates to lung mitochondrial non-heme iron. Description: Lung mitochondrial non-heme iron in CS-exposed mice. As to conditions: WT mice, CS 6 or 8 weeks, DFP after 4 weeks of CS, versus CS without DFP; FIG. 6e. The procedure: as §1, with “criterion.” for “criterion. At the end of the exposure regimen, mice were euthanized by CO2 narcosis, the tracheas cannulated and the lungs inflated with PBS at 25 cm of H2O pressure. The left lung was tied off with a suture, dissected and flash frozen and the right lung fixed in 4% formalin at 4° C. overnight.”
as §2
Measurement of mitochondrial membrane potential and Cytochrome C oxidase activity. Mitochondrial-enriched fractions were isolated from the lungs of mice and JC1 uptake measured using the MITOISO1 mitochondrial isolation kit (Sigma Aldrich). […]

Turning to `Cc1c(O)c(=O)ccn1C` [DFP, Deferiprone], the weight gain entry in the test with mice exposed to CS [1] was “improved weight gain”. The “CS-induced MCC impairment, DFP combined with IRP2 deficiency” value in the test with mice exposed to CS [2] (DFP-treated Irp2-/- mice versus DFP or Irp2-/- alone, CS 1 month, FIG. 6c) is listed as “better protection from CS-induced MCC impairment than DFP or Irp2−/− alone”. In the test on mice exposed to CS [2] (prophylactic: DFP in drinking water for the duration of CS-exposure (1 month), WT mice, FIG. 6c), the “CS-induced MCC impairment” value was “protected mice from CS-induced MCC impairment”. For the same compound, the “experimental COPD (overall)” value in the test on mice exposed to CS [2] (summary statement, CS-exposed mice) was “alleviated experimental COPD”. Also, the “BAL total leukocyte counts (pulmonary inflammation)” value in the test on mice exposed to CS [3] (FIG. 6f) was “significant reductions”. For the same compound, the “total BALF protein (acute lung injury)” value in the test with mice exposed to CS [3] (FIG. 6g) was “significant reductions”. For the same compound, the “BALF IL-6 protein concentration (pulmonary inflammation)” value in the test with mice exposed to CS [3] (FIG. 16e) is on record as “significant reductions”. Also, in the test on mice exposed to CS [3] (FIG. 16d), the “BALF IL-33 protein concentration (pulmonary inflammation)” value is “significant reductions”. In addition, the “lung mitochondrial iron loading” value in test [4] is listed as “lower lung mitochondrial iron loading”.

Values taken from US10905682B2, “Use of mitochondrial iron chelators for treatment of chronic obstructive pulmonary disease” (Cornell University, priority 2015, dated 2021).
